Where two headings read alike, the source gives them in different places.
Columns and labels:
[1] = biological target: T1, human oestrogen receptor α (Homo sapiens, UniProt P03372); assay: Dual-luciferase reporter assay, full-length ERα and ERE in JEG-3 cells; format: cell-based
T1 construct: expressed in transfected cells; host or cells: JEG-3 human choriocarcinoma cells
T1 sequence (P03372 1-595): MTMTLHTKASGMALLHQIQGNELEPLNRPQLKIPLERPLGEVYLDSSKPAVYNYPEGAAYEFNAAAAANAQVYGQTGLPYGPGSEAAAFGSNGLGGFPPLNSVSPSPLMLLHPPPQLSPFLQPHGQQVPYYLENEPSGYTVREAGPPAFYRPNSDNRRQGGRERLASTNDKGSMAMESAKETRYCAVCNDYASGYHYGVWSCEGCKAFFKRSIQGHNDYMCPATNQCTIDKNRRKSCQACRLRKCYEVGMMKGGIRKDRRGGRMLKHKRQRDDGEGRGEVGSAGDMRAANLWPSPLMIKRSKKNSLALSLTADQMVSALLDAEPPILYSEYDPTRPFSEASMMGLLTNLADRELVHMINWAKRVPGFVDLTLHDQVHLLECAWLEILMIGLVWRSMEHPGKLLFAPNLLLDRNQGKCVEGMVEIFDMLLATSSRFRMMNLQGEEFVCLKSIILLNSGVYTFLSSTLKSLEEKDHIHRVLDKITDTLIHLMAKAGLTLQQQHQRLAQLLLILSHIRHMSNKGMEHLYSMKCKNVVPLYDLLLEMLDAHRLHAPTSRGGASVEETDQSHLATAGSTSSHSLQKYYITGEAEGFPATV
Description: Dual-luciferase reporter assays were carried out primarily according to the method described in a previous study. In short, full-length sequences of human oestrogen receptor α and β were amplified by RT-PCR using mRNA from MCF-7 (Supplementary Table 3), and inserted into a pSVSPORT1 (Invitrogen); the resulting constructs were termed pSVhERα and pSVhERβ. A reporter plasmid containing ERE was constructed by inserting four tandem repeats of an ERE of Xenopus laevis vitellogenin A2 into a pGL4.23 vector (Promega), and was termed pGL4-ERE-luc. […] The Renilla LUC control reporter construct pGL4.74-TK was purchased from Promega (Madison, WI). […] The assays were performed in quadruplicate, and the results were expressed as the fold induction of the control after normalization against Renilla luciferase activity. Sigmoidal dose-effect curves were calculated using the GraphPad Prism 4 software. The IC50 values were calculated on the basis of the sigmoidal dose-effect curves. […]

CD-1 mice = assay: Q-RT-PCR validation of the microarray; format: in vivo; conditions: 50 mg/kg bw/d BHPF, 3 days
Description: The uteri, ovaries and livers were collected for total RNA isolation. Total RNA was isolated using Trizol reagent (Invitrogen) and further purified by NucleoSpin RNA Clean-up (Macherey-Nagel, Germany). Fluorescence labelling of the RNA samples was performed with a Jingxin cRNA linear amplification and labelling kit (CapitalBio) according to the manufacturer's instructions. The total RNA from each pool of tissue samples (a mixture from three animals) was used for microarray analysis. Cy3 dCTP was used to label the samples. The labelled products were added to SurePrint G3 mouse gene expression 8 × 60 K microarrays (Agilent) and incubated overnight at 42 °C. Following hybridization, the gene arrays were washed and scanned using an Agilent G2565CA Microarray Scanner. Glyceraldehyde 3-phosphate dehydrogenase (GAPDH) was used as an endogenous control to monitor the quality of the target preparation. The data were processed with feature extraction software (GeneSpring GX v.11; Agilent). The raw signals were log-transformed and normalized with the percentile shift normalization method. All arrays met the minimum Agilent QA/QC standards. To verify the data from the gene array, 14 genes were chosen as candidates for Q-RT-PCR. Primers are listed in Supplementary Table 4. GAPDH was used as an endogenous control. Amplification was performed using SYBR Green PCR master mix (Applied Biosystems) according to the manufacturer's instructions. The relative expression was quantified using the 2^(−ΔΔCt) method. The Gene Ontology (GO) and KEGG pathway enrichment analyses were performed with DAVID (refs [40], [41]).

Oc1ccc(C2(c3ccc(O)cc3)c3ccccc3-c3ccccc32)cc1 [BHPF, 9,9-bis(4-hydroxyphenyl)-fluorene] was tested, and the IC50 ([1]; coexisted with 1 × 10^−9 M E2, read-out: IC50, anti-oestrogenic activity) was 109 nM, the IC50 ([1]; vs 1 nM E2, read-out: IC50 converted to mass concentration (converted)) was 109 nM and the “Actb gene expression change, liver, Q-RT-PCR” value (CD-1 mice) was 1.25. For the same compound, the “Actb gene expression change, ovary, Q-RT-PCR” value (CD-1 mice) was 1.13, the “Actb gene expression change, uterus, Q-RT-PCR” value (CD-1 mice) was 1.13 and the “Cfd gene expression change, liver, Q-RT-PCR” value (CD-1 mice) was -2.43. The “Cfd gene expression change, ovary, Q-RT-PCR” value (CD-1 mice) was 2.28, the “Cfd gene expression change, uterus, Q-RT-PCR” value (CD-1 mice) was -2.85 and the “Orm1 gene expression change, liver, Q-RT-PCR” value (CD-1 mice) was -1.41. The “Orm1 gene expression change, ovary, Q-RT-PCR” value (CD-1 mice) was 2.19, the “Orm1 gene expression change, uterus, Q-RT-PCR” value (CD-1 mice) was 5.17 and the “Spp1 gene expression change, liver, Q-RT-PCR” value (CD-1 mice) was -1.51. The “Spp1 gene expression change, ovary, Q-RT-PCR” value (CD-1 mice) was -1.68, the “Spp1 gene expression change, uterus, Q-RT-PCR” value (CD-1 mice) was 3.43 and the “Sprr1a gene expression change, liver, Q-RT-PCR” value (CD-1 mice) was 4.11. The “Sprr1a gene expression change, ovary, Q-RT-PCR” value (CD-1 mice) was 1.16, the “Sprr1a gene expression change, uterus, Q-RT-PCR” value (CD-1 mice) was -2.01 and the “Sprr2a2 gene expression change, liver, Q-RT-PCR” value (CD-1 mice) was 3.43. For the same compound, the “Sprr2a2 gene expression change, ovary, Q-RT-PCR” value (CD-1 mice) was -8.94, the “Sprr2a2 gene expression change, uterus, Q-RT-PCR” value (CD-1 mice) was -5.70 and the “Sprr2b gene expression change, liver, Q-RT-PCR” value (CD-1 mice) was 4.76. The “Sprr2b gene expression change, ovary, Q-RT-PCR” value (CD-1 mice) was -9.65, the “Sprr2b gene expression change, uterus, Q-RT-PCR” value (CD-1 mice) was -9.58 and the “Sprr2f gene expression change, liver, Q-RT-PCR” value (CD-1 mice) was 4.41. The “Sprr2f gene expression change, ovary, Q-RT-PCR” value (CD-1 mice) was -5.28, the “Sprr2f gene expression change, uterus, Q-RT-PCR” value (CD-1 mice) was -5.78 and the “Sprr2g gene expression change, liver, Q-RT-PCR” value (CD-1 mice) was 3.68. For the same compound, the “Sprr2g gene expression change, ovary, Q-RT-PCR” value (CD-1 mice) was -5.70, the “Sprr2g gene expression change, uterus, Q-RT-PCR” value (CD-1 mice) was -1.83 and the “chil3 gene expression change, liver, Q-RT-PCR” value (CD-1 mice) was -2.81. For the same compound, the “chil3 gene expression change, ovary, Q-RT-PCR” value (CD-1 mice) was -3.92, the “chil3 gene expression change, uterus, Q-RT-PCR” value (CD-1 mice) was -3.07 and the “cyp2e1 gene expression change, liver, Q-RT-PCR” value (CD-1 mice) was 4.06. For the same compound, the “cyp2e1 gene expression change, ovary, Q-RT-PCR” value (CD-1 mice) was 1.69, the “cyp2e1 gene expression change, uterus, Q-RT-PCR” value (CD-1 mice) was 4.00 and the “ll1f6 gene expression change, liver, Q-RT-PCR” value (CD-1 mice) was 2.66. For the same compound, the “ll1f6 gene expression change, ovary, Q-RT-PCR” value (CD-1 mice) was -4.29, the “ll1f6 gene expression change, uterus, Q-RT-PCR” value (CD-1 mice) was -4.66 and the “serp1d gene expression change, liver, Q-RT-PCR” value (CD-1 mice) was 2.48. For the same compound, the “serp1d gene expression change, ovary, Q-RT-PCR” value (CD-1 mice) was 1.59, the “serp1d gene expression change, uterus, Q-RT-PCR” value (CD-1 mice) was 30.91 and the “GAPDH gene expression change, liver, Q-RT-PCR” value (CD-1 mice; endogenous control) was 1.00. The “GAPDH gene expression change, ovary, Q-RT-PCR” value (CD-1 mice; endogenous control) was 1.00 and the “GAPDH gene expression change, uterus, Q-RT-PCR” value (CD-1 mice; endogenous control) was 1.00.

— PMC5339874, “Fluorene-9-bisphenol is anti-oestrogenic and may cause adverse pregnancy outcomes in mice” (Nature Communications, 2017)
